In the supplement of paper PMC8498969:

Columns and labels:
HEK293 [1] = experiment: maximal inhibition of ZIKV NS1 production (% inhibition); higher = stronger antiviral effect
Procedure: (§1)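 HEK293 cells in 1536-well plates were pre-treated with compound for 1 h, infected with ZIKV (MOI 1) for 24 h, and NS1 antigen (intra- plus extracellular) was measured by TR-FRET. Confirmation used 11-point 1:3 dilutions, and IC50 and maximal inhibition were fitted in GraphPad Prism.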

HEK293 [2] = experiment: IC50 for inhibition of ZIKV NS1 production
Procedure: as §1

HEK293 [3] = experiment: cytotoxicity IC50 (ATP content, uninfected cells); higher = less cytotoxic; conditions: infection: none

Compound	maximal inhibition (HEK293 [1])	IC50 (HEK293 [2])	cytotoxicity IC50 (HEK293 [3])
Cc1ccc([N+](=O)[O-])cc1S(=O)(=O)N(C)/N=C/c1cnc2ccc(Br)cn12	101	0.62 µM	> 100 µM
Cc1n[nH]c2ccc(-c3cncc(OC[C@@H](N)Cc4c[nH]c5ccccc45)c3)cc12	103	8.5 µM	> 100 µM
CC[C@H]1CN2CCc3cc(OC)c(OC)cc3[C@@H]2C[C@@H]1C[C@H]1NCCc2cc(OC)c(OC)cc21	103	0.11 µM	> 100 µM
N=C(N)NN=C(/C=C/c1ccc([N+](=O)[O-])o1)/C=C/c1ccc([N+](=O)[O-])o1	102	3.9 µM	3.9 µM
CC(=O)O[C@H]1C(=O)[C@@]2(C)[C@H]([C@H](OC(=O)c3ccccc3)[C@]3(O)C[C@H](OC(=O)[C@H](O)[C@@H](NC(=O)c4ccccc4)c4ccccc4)C(C)=C1C3(C)C)[C@]1(OC(C)=O)CO[C@@H]1C[C@@H]2O	38	0.089 µM	> 100 µM
c1cnc2c(c1)ccc1cccnc12	99	14 µM	3.6 µM
c1ccc2c(-c3cnn4cc(-c5ccc(N6CCNCC6)cc5)cnc34)ccnc2c1	106	6.1 µM	80 µM
O=C1c2ccccc2-[n+]2ccc3c([nH]c4ccccc43)c21	86	2 µM	7.5 µM
CC(C)c1ccc(Cn2ccc3c4c(N)nc(NC5CC5)nc4ccc32)cc1	106	3 µM	78 µM
COc1cccc2c1C(=O)c1c(O)c3c(c(O)c1C2=O)C[C@@](O)(C(=O)CO)C[C@@H]3O[C@H]1C[C@H](N)[C@@H](O)[C@H](C)O1	84	0.49 µM	> 100 µM
CCC[C@@H](C=O)NC(=O)[C@H](CC(C)C)NC(=O)[C@H](CC(C)C)NC(=O)OCc1ccccc1	94	1.6 µM	2.4 µM
C[n+]1cc2c3c(ccc2c2ccc4cc5c(cc4c21)OCO5)OCO3	96	2.9 µM	6.4 µM
COCC[n+]1c2c(n(Cc3cnccn3)c1C)C(=O)c1ccccc1C2=O	104	0.018 µM	0.03 µM
CC(C)c1cnn2c(NCc3ccccc3)cc(N[C@@H](CO)[C@H](O)CO)nc12	87	1.2 µM	> 100 µM
Oc1cccc(-c2nc(N3CCOCC3)c3oc4ncccc4c3n2)c1	92	1.6 µM	0.94 µM
COc1cc(NCc2ccc3nc(N)nc(N)c3c2C)cc(OC)c1OC	99	1.6 µM	2.2 µM
CN(C)CCN(C)C(=O)c1ccc(NC(=O)Nc2ccc(-c3nc(N4CCOCC4)c4ccn(CC(F)(F)F)c4n3)cc2)cc1	76	2.9 µM	3.4 µM
CC(C)(O)Cn1c(NC(=O)c2ccc(-c3cn[nH]c3)s2)nc2cc(CN3CCOCC3)ccc21	103	8.3 µM	> 100 µM
COc1cc([C@@H]2c3cc4c(cc3[C@@H](O[C@@H]3O[C@@H]5CO[C@@H](c6cccs6)O[C@H]5[C@H](O)[C@H]3O)[C@H]3COC(=O)[C@H]23)OCO4)cc(OC)c1O	100	1.2 µM	> 100 µM
CC(C)n1nc(-c2cc3cc(O)ccc3[nH]2)c2c(N)ncnc21	78	16 µM	77 µM
